Measured values: US20250214942A1, “INHIBITORS OF RECEPTOR INTERACTING PROTEIN KINASE I FOR THE TREATMENT OF DISEASE” (Board of Regents, The University of Texas System, priority 2019, published 2025)
Like-named read-outs stand apart in the source and are kept apart here.

Tested on: human monocytic cell line U937
Test: Human U937 cellular necroptosis assay (TNFalpha + z-VAD-FMK, Cell Titer-Glo viability)
Format: cell-based
Settings: U937 cells, 25 ng/mL human TNFalpha + 25 μM z-VAD-FMK, read-out: hU937 Avg IC50
Experimental: The human monocytic cell line U937 (CRL-1593.2) was purchased from ATCC. The cells were routinely maintained in RPMI-1640 Medium (Gibco, Catalog #11875-093) supplemented with 10% heat inactivated fetal bovine serum (Gibco, Catalog #16140-071), 100 units/mL penicillin and 100 μg/mL streptomycin (Gibco, Catalog #15140-122), in a humidified incubator (37° C., 5% CO2). For the assay, cells were resuspended in RPMI-1640 phenol red free Media (Gibco, Catalog #11835-030) supplemented with 10% fetal bovine serum (Sigma, Catalog #F2442), 100 units/mL penicillin and 100 ug/mL streptomycin. Cells were stimulated with 25 ng/mL human TNFalpha (Cell Sciences, Catalog #CSI15659B) and 25 μM z-VAD-FMK (R&D Systems, Catalog #FMK001) followed by seeding 5000 cells per well in a volume of 40 μL to a white, CulturPlate-384 (Perkin Elmer, Catalog #6007680). Stock solutions of the test compounds were prepared in 100% DMSO (Sigma, Catalog #D2650) and serially diluted 1:3 using 100% DMSO. Compounds were additionally diluted 1:40 in assay medium, and 10 μL/well was transferred to the plate. Following the compound addition the plate was incubated at 37° C. and 5% CO2 for 22 h. After 22 h, viability was assessed with the addition of 20 μL of Cell Titer-Glo 2.0 (Promega, Catalog #G9243). The tissue culture plate was shaken on an orbital shaker at 300 RPM for 15 minutes at rt in the dark. Luminescence was measured using a PerkinElmer Envision™ plate reader. IC50 values were calculated using a four-parameter logistic curve fit using Genedata Screener software. Results are shown below in Table 3, where the average value across multiple runs is given.

| SMILES | IC50 (Homo sapiens, U-937, 22 h) | IC50 (22 h) |
| --- | --- | --- |
| Cc1c(F)cc([C@H]2CC=NN2C(=O)C23CC(COc4ccc(C#N)cn4)(C2)C3)cc1F [Example 266, (R)-6-((3-(5-(3,5-difluoro-4-methylphenyl)-4,5-dihydro-1H-pyrazole-1-carbonyl)-bicyclo[1.1.1]pentan-1-yl)-methoxy)nicotinonitrile] | 1800 nM |  |
| Cc1ccc(C2CC=NN2C(=O)C23CC(COc4cnc(C#N)cn4)(C2)C3)c(F)c1 (stereo not drawn) [Example 267, 5-((3-(5-(2-fluoro-4-methyl-phenyl)-4,5-dihydro-1H-pyrazole-1-carbonyl)bicyclo-[1.1.1]pentan-1-yl)methoxy)-pyrazine-2-carbonitrile] | 3.8 nM |  |
| N#Cc1cnc(OCC23CC(C(=O)N4N=CCC4c4cc(F)ccc4F)(C2)C3)cn1 (stereo not drawn) [Example 268, 5-((3-(5-(2,5-difluorophenyl)-4,5-dihydro-1H-pyrazole-1-carbonyl)bicyclo[1.1.1]pentan-1-yl)methoxy)pyrazine-2-carbonitrile] | 3.9 nM |  |
| Cc1ccc(C2CC=NN2C(=O)C23CC(COc4cnc(C#N)cn4)(C2)C3)cc1F (stereo not drawn) [Example 269, 5-((3-(5-(3-fluoro-4-methyl-phenyl)-4,5-dihydro-1H-pyrazole-1-carbonyl)bicyclo-[1.1.1]pentan-1-yl)-methoxy)pyrazine-2-carbonitrile] | 5.4 nM |  |
| N#Cc1ccc(OCC23CC(C(=O)N4N=CCC4c4cccc(F)c4F)(C2)C3)nc1 (stereo not drawn) [Example 270, 6-((3-(5-(2,3-difluorophenyl)-4,5-dihydro-1H-pyrazole-1-carbonyl)bicyclo[1.1.1]pentan-1-yl)methoxy)nicotinonitrile] | 16 nM |  |
| Cc1ccc(C2CC=NN2C(=O)C23CC(COc4ccc(C#N)cn4)(C2)C3)c(F)c1 (stereo not drawn) [Example 271, 6-((3-(5-(2-fluoro-4-methyl-phenyl)-4,5-dihydro-1H-pyrazole-1-carbonyl)bicyclo-[1.1.1]pentan-1-yl)methoxy)-nicotinonitrile] | 20 nM |  |
| Cc1ccc(C2CC=NN2C(=O)C23CC(COc4ccc(C#N)cn4)(C2)C3)cc1F (stereo not drawn) [Example 272, 6-((3-(5-(3-fluoro-4-methyl-phenyl)-4,5-dihydro-1H-pyrazole-1-carbonyl)bicyclo-[1.1.1]pentan-1-yl)-methoxy)nicotinonitrile] | 24 nM |  |
| Cc1ccc(C2CC=NN2C(=O)C23CC(COc4ccc(C#N)cn4)(C2)C3)cc1 (stereo not drawn) [Example 273, 6-((3-(5-(p-tolyl)-4,5-dihydro-1H-pyrazole-1-carbonyl)-bicyclo[1.1.1]pentan-1-yl)-methoxy)nicotinonitrile] | 30 nM |  |
| N#Cc1cnc(OCC23CC(C(=O)N4N=CCC4c4cnccn4)(C2)C3)cn1 (stereo not drawn) [Example 274, 5-((3-(5-(pyrazin-2-yl)-4,5-dihydro-1H-pyrazole-1-carbonyl)bicyclo[1.1.1]pentan-1-yl)methoxy)pyrazine-2-carbonitrile] | 61 nM |  |
| N#Cc1ccc(OCC23CC(C(=O)N4N=CCC4c4cc(F)c(Br)c(F)c4)(C2)C3)nc1 (stereo not drawn) [Example 275, 6-((3-(5-(4-bromo-3,5-difluorophenyl)-4,5-dihydro-1H-pyrazole-1-carbonyl)-bicyclo[1.1.1]pentan-1-yl)-methoxy)nicotinonitrile] | 73 nM |  |
| N#Cc1ccc(OCC23CC(C(=O)N4N=CCC4c4ccccc4)(C2)C3)nc1 (stereo not drawn) [Example 276, 6-((3-(5-phenyl-4,5-dihydro-1H-pyrazole-1-carbonyl)-bicyclo[1.1.1]pentan-1-yl)-methoxy)nicotinonitrile] | 76 nM |  |
| N#Cc1cnc(OCC23CC(C(=O)N4N=CCC4c4cncc(F)c4)(C2)C3)cn1 (stereo not drawn) [Example 277, 5-((3-(5-(5-fluoropyridin-3-yl)-4,5-dihydro-1H-pyrazole-1-carbonyl)bicyclo[1.1.1]-pentan-1-yl)methoxy)pyrazine-2-carbonitrile] | 81 nM |  |
| Cc1ccc(C2CC=NN2C(=O)C23CC(COc4cnc(C#N)cn4)(C2)C3)nc1 (stereo not drawn) [Example 278, 5-((3-(5-(5-methylpyridin-2-yl)-4,5-dihydro-1H-pyrazole-1-carbonyl)bicyclo[1.1.1]-pentan-1-yl)methoxy)pyrazine-2-carbonitrile] | 97 nM |  |
| Cc1cccc(C2CC=NN2C(=O)C23CC(COc4ccc(C#N)cn4)(C2)C3)c1 (stereo not drawn) [Example 279, 6-((3-(5-(m-tolyl)-4,5-dihydro-1H-pyrazole-1-carbonyl)-bicyclo[1.1.1]pentan-1-yl)-methoxy)nicotinonitrile] | 104 nM |  |
| N#Cc1ccc(OCC23CC(C(=O)N4N=CCC4c4cnccn4)(C2)C3)nc1 (stereo not drawn) [Example 280, 6-((3-(5-(pyrazin-2-yl)-4,5-dihydro-1H-pyrazole-1-carbonyl)bicyclo[1.1.1]pentan-1-yl)methoxy)nicotinonitrile] | 106 nM |  |
| N#Cc1ccc(OCC23CC(C(=O)N4N=CCC4c4cccc(C#N)c4)(C2)C3)nc1 (stereo not drawn) [Example 281, 6-((3-(5-(3-cyanophenyl)-4,5-dihydro-1H-pyrazole-1-carbonyl)bicyclo[1.1.1]pentan-1-yl)methoxy)nicotinonitrile] | 148 nM |  |
| Cc1cnc(C2CC=NN2C(=O)C23CC(COc4ccc(C#N)cn4)(C2)C3)cn1 (stereo not drawn) [Example 282, 6-((3-(5-(5-methylpyrazin-2-yl)-4,5-dihydro-1H-pyrazole-1-carbonyl)bicyclo[1.1.1]-pentan-1-yl)methoxy)-nicotinonitrile] | 153 nM |  |
| N#Cc1cnc(OCC23CC(C(=O)N4CC(F)CC4c4cccc(F)c4)(C2)C3)cn1 (stereo not drawn) [Example 283] | 160 nM |  |
| N#Cc1cncc(C2CC=NN2C(=O)C23CC(COc4cnc(C#N)cn4)(C2)C3)c1 (stereo not drawn) [Example 284, 5-((3-(5-(5-cyanopyridin-3-yl)-4,5-dihydro-1H-pyrazole-1-carbonyl)bicyclo[1.1.1]pentan-1-yl)methoxy)pyrazine-2-carbonitrile] | 161 nM |  |
| N#Cc1ccc(OCC23CC(C(=O)N4N=CCC4c4cncc(F)c4)(C2)C3)nc1 (stereo not drawn) [Example 285, 6-((3-(5-(5-fluoropyridin-3-yl)-4,5-dihydro-1H-pyrazole-1-carbonyl)bicyclo[1.1.1]-pentan-1-yl)methoxy)-nicotinonitrile] | 164 nM |  |
| N#Cc1ccc(OCC23CC(C(=O)N4N=CCC4c4cncc(C#N)c4)(C2)C3)nc1 (stereo not drawn) [Example 286, 5-(1-(3-(((5-cyanopyridin-2-yl)oxy)methyl)bicyclo[1.1.1]-pentane-1-carbonyl)-4,5-dihydro-1H-pyrazol-5-yl)-nicotinonitrile] | 218 nM |  |
| N#Cc1ccc(OCC23CC(C(=O)N4CC(F)CC4c4cccc(F)c4)(C2)C3)nc1 (stereo not drawn) [Example 288, 6-((3-(4-fluoro-2-(3-fluoro-phenyl)pyrrolidine-1-carbonyl)bicyclo[1.1.1]pentan-1-yl)methoxy)nicotinonitrile] | 276 nM |  |
| Cc1ccc(C2CC=NN2C(=O)C23CC(COc4cnc(C#N)cn4)(C2)C3)cn1 (stereo not drawn) [Example 289, 5-((3-(5-(6-methylpyridin-3-yl)-4,5-dihydro-1H-pyrazole-1-carbonyl)bicyclo[1.1.1]-pentan-1-yl)methoxy)pyrazine-2-carbonitrile] | 281 nM |  |
| N#Cc1ccc(OCC23CC(C(=O)N4N=CCC4c4cccc(Cl)c4Cl)(C2)C3)nc1 (stereo not drawn) [Example 290, 6-((3-(5-(2,3-dichlorophenyl)-4,5-dihydro-1H-pyrazole-1-carbonyl)bicyclo[1.1.1]pentan-1-yl)methoxy)nicotinonitrile] | 445 nM |  |
| N#Cc1ccc(OCC23CC(C(=O)N4N=CCC4c4ncc(F)cc4F)(C2)C3)nc1 (stereo not drawn) [Example 291, 6-((3-(5-(3,5-difluoropyridin-2-yl)-4,5-dihydro-1H-pyrazole-1-carbonyl)bicyclo-[1.1.1]pentan-1-yl)methoxy)-nicotinonitrile] | 620 nM |  |
| C[C@@H](c1c(F)cccc1F)N(C)C(=O)C12CC(COc3cnc(C#N)cn3)(C1)C2 [Example 292, (S)-3-(((5-cyanopyrazin-2-yl)oxy)methyl)-N-(1-(2,6-difluorophenyl)ethyl)-N-methylbicyclo[1.1.1]pentane-1-carboxamide] | 956 nM |  |
| N#Cc1cnc(OCC23CC(C(=O)NCc4ccccc4F)(C2)C3)cn1 [Example 293, 3-(((5-cyanopyrazin-2-yl)oxy)-methyl)-N-(2-fluorobenzyl)-bicyclo[1.1.1]pentane-1-carboxamide] |  | 1500 nM |
| N#Cc1cnc(OCC23CC(C(=O)NCc4c(F)cccc4F)(C2)C3)cn1 [Example 294, 3-(((5-cyanopyrazin-2-yl)oxy)-methyl)-N-(2,6-difluoro-benzyl)bicyclo[1.1.1]pentane-1-carboxamide] | 5610 nM |  |
| C[C@@H](c1ccccc1F)N(C)C(=O)C12CC(COc3cnc(C#N)cn3)(C1)C2 [Example 295, (S)-3-(((5-cyanopyrazin-2-yl)oxy)methyl)-N-(1-(2-fluoro-phenyl)ethyl)-N-methyl-bicyclo[1.1.1]pentane-1-carboxamide] | 5680 nM |  |
| N#Cc1cnc(OCC23CC(C(=O)NCc4cccc(F)c4F)(C2)C3)cn1 [Example 296, 3-(((5-cyanopyrazin-2-yl)-oxy)methyl)-N-(2,3-difluoro-benzyl)bicyclo[1.1.1]pentane-1-carboxamide] | 5850 nM |  |
